*1 amine or outer side, *2 acyl side, *3 side chain or, on linkers, in order; H or OH if unused. [ ]: non-standard residue; d: D form. Cys(Acm) = CC(=O)NCSC[C@H](N[*:1])C(=O)[*:2]; Phe(4-F) = N[C@@H](Cc1ccc(F)cc1)C(=O)O; NMeA = CN[C@@H](C)C(=O)O; Nle = CCCC[C@H](N)C(=O)O; Orn = NCCC[C@H](N)C(=O)O
Experiments:
[1] = system: guinea pigs; test: In vivo bronchodilator activity by tracheal instillation against histamine-induced bronchoconstriction; set-up: species or system guinea pig; settings: 100 μl, anesthetized male Hartley guinea pigs, histamine challenge 50 μg/kg i.v., inhibition of tracheal pressure increase
[2] = system: guinea pig tracheal smooth muscle; test: Tracheal relaxant activity of VIP analogs on isolated guinea pig tracheal rings; format: cell-based; settings: cumulative concentration response; responses as % of maximum response to VIP (10^-6 M=100%); at least three tissues pooled; linear regression

Substance	Bronchodilator activity in guinea pigs, ED50 [1]	EC50 [2]
Ac--[Lys^12, Nle^17, Ala^19, Val^26, Thr^28, Ala^29-31 ]--VIP (Ac-HSDAVFTDNYTKLRKQ[Nle]AAKKYLNSVLTAAA-NH2; SMILES CCCC[C@H](NC(=O)[C@H](CCC(N)=O)NC(=O)[C@H](CCCCN)NC(=O)[C@H](CCCNC(=N)N)NC(=O)[C@H](CC(C)C)NC(=O)[C@H](CCCCN)NC(=O)[C@@H](NC(=O)[C@H](Cc1ccc(O)cc1)NC(=O)[C@H](CC(N)=O)NC(=O)[C@H](CC(=O)O)NC(=O)[C@@H](NC(=O)[C@H](Cc1ccccc1)NC(=O)[C@@H](NC(=O)[C@H](C)NC(=O)[C@H](CC(=O)O)NC(=O)[C@H](CO)NC(=O)[C@H](Cc1c[nH]cn1)NC(C)=O)C(C)C)[C@@H](C)O)[C@@H](C)O)C(=O)N[C@@H](C)C(=O)N[C@@H](C)C(=O)N[C@@H](CCCCN)C(=O)N[C@@H](CCCCN)C(=O)N[C@@H](Cc1ccc(O)cc1)C(=O)N[C@@H](CC(C)C)C(=O)N[C@@H](CC(N)=O)C(=O)N[C@@H](CO)C(=O)N[C@H](C(=O)N[C@@H](CC(C)C)C(=O)N[C@H](C(=O)N[C@@H](C)C(=O)N[C@@H](C)C(=O)N[C@@H](C)C(N)=O)[C@@H](C)O)C(C)C) [Ac--(SEQ ID NO: 10)--NH2]	0.82 µg	0.3 nM
Ac--[Ala^2, Lys^12, Nle^17, Ala^25, Leu^26, Lys^27,28, Gly^29,30, Thr^31 ]--VIP (Ac-HADAVFTDNYTKLRKQ[Nle]AVKKYLNALKKGGT-NH2; SMILES CCCC[C@H](NC(=O)[C@H](CCC(N)=O)NC(=O)[C@H](CCCCN)NC(=O)[C@H](CCCNC(=N)N)NC(=O)[C@H](CC(C)C)NC(=O)[C@H](CCCCN)NC(=O)[C@@H](NC(=O)[C@H](Cc1ccc(O)cc1)NC(=O)[C@H](CC(N)=O)NC(=O)[C@H](CC(=O)O)NC(=O)[C@@H](NC(=O)[C@H](Cc1ccccc1)NC(=O)[C@@H](NC(=O)[C@H](C)NC(=O)[C@H](CC(=O)O)NC(=O)[C@H](C)NC(=O)[C@H](Cc1c[nH]cn1)NC(C)=O)C(C)C)[C@@H](C)O)[C@@H](C)O)C(=O)N[C@@H](C)C(=O)N[C@H](C(=O)N[C@@H](CCCCN)C(=O)N[C@@H](CCCCN)C(=O)N[C@@H](Cc1ccc(O)cc1)C(=O)N[C@@H](CC(C)C)C(=O)N[C@@H](CC(N)=O)C(=O)N[C@@H](C)C(=O)N[C@@H](CC(C)C)C(=O)N[C@@H](CCCCN)C(=O)N[C@@H](CCCCN)C(=O)NCC(=O)NCC(=O)N[C@H](C(N)=O)[C@@H](C)O)C(C)C) [Ac--(SEQ ID NO: 20)--NH2]	0.05 µg	0.44 nM
Ac--[Glu^8, Lys^12, Nle^17, Ala^19, Ala^25, Leu^26, Lys^27,28, Ala^29-31 ]--VIP (Ac-HSDAVFTENYTKLRKQ[Nle]AAKKYLNALKKAAA-NH2; SMILES CCCC[C@H](NC(=O)[C@H](CCC(N)=O)NC(=O)[C@H](CCCCN)NC(=O)[C@H](CCCNC(=N)N)NC(=O)[C@H](CC(C)C)NC(=O)[C@H](CCCCN)NC(=O)[C@@H](NC(=O)[C@H](Cc1ccc(O)cc1)NC(=O)[C@H](CC(N)=O)NC(=O)[C@H](CCC(=O)O)NC(=O)[C@@H](NC(=O)[C@H](Cc1ccccc1)NC(=O)[C@@H](NC(=O)[C@H](C)NC(=O)[C@H](CC(=O)O)NC(=O)[C@H](CO)NC(=O)[C@H](Cc1c[nH]cn1)NC(C)=O)C(C)C)[C@@H](C)O)[C@@H](C)O)C(=O)N[C@@H](C)C(=O)N[C@@H](C)C(=O)N[C@@H](CCCCN)C(=O)N[C@@H](CCCCN)C(=O)N[C@@H](Cc1ccc(O)cc1)C(=O)N[C@@H](CC(C)C)C(=O)N[C@@H](CC(N)=O)C(=O)N[C@@H](C)C(=O)N[C@@H](CC(C)C)C(=O)N[C@@H](CCCCN)C(=O)N[C@@H](CCCCN)C(=O)N[C@@H](C)C(=O)N[C@@H](C)C(=O)N[C@@H](C)C(N)=O) [Ac--(SEQ ID NO: 21)--NH2]	0.03 µg	0.1 nM
Ac--[Leu^5, p-F--Phe^6, Glu^8, Orn^12, Ala^17,19, Thr^25, Val^26, Thr^28, Gly^29,30, Cys(Acm)^31 ]--VIP (Ac-HSDAL[Phe(4-F)]TENYT[Orn]LRKQAAAKKYLNTVLTGG[Cys(Acm)]-NH2; SMILES CC(=O)NCSC[C@H](NC(=O)CNC(=O)CNC(=O)[C@@H](NC(=O)[C@H](CC(C)C)NC(=O)[C@@H](NC(=O)[C@@H](NC(=O)[C@H](CC(N)=O)NC(=O)[C@H](CC(C)C)NC(=O)[C@H](Cc1ccc(O)cc1)NC(=O)[C@H](CCCCN)NC(=O)[C@H](CCCCN)NC(=O)[C@H](C)NC(=O)[C@H](C)NC(=O)[C@H](C)NC(=O)[C@H](CCC(N)=O)NC(=O)[C@H](CCCCN)NC(=O)[C@H](CCCNC(=N)N)NC(=O)[C@H](CC(C)C)NC(=O)[C@H](CCCN)NC(=O)[C@@H](NC(=O)[C@H](Cc1ccc(O)cc1)NC(=O)[C@H](CC(N)=O)NC(=O)[C@H](CCC(=O)O)NC(=O)[C@@H](NC(=O)[C@H](Cc1ccc(F)cc1)NC(=O)[C@H](CC(C)C)NC(=O)[C@H](C)NC(=O)[C@H](CC(=O)O)NC(=O)[C@H](CO)NC(=O)[C@H](Cc1c[nH]cn1)NC(C)=O)[C@@H](C)O)[C@@H](C)O)[C@@H](C)O)C(C)C)[C@@H](C)O)C(N)=O) [Ac--(SEQ ID NO: 13)--NH2]	0.09 µg	0.68 nM
Ac--[Glu^8, Lys^12, Nle^17, Val^26, Thr^28, Gly^29,30, Cys(Acm)^31 ]--VIP (Ac-HSDAVFTENYTKLRKQ[Nle]AVKKYLNSVLTGG[Cys(Acm)]-NH2; SMILES CCCC[C@H](NC(=O)[C@H](CCC(N)=O)NC(=O)[C@H](CCCCN)NC(=O)[C@H](CCCNC(=N)N)NC(=O)[C@H](CC(C)C)NC(=O)[C@H](CCCCN)NC(=O)[C@@H](NC(=O)[C@H](Cc1ccc(O)cc1)NC(=O)[C@H](CC(N)=O)NC(=O)[C@H](CCC(=O)O)NC(=O)[C@@H](NC(=O)[C@H](Cc1ccccc1)NC(=O)[C@@H](NC(=O)[C@H](C)NC(=O)[C@H](CC(=O)O)NC(=O)[C@H](CO)NC(=O)[C@H](Cc1c[nH]cn1)NC(C)=O)C(C)C)[C@@H](C)O)[C@@H](C)O)C(=O)N[C@@H](C)C(=O)N[C@H](C(=O)N[C@@H](CCCCN)C(=O)N[C@@H](CCCCN)C(=O)N[C@@H](Cc1ccc(O)cc1)C(=O)N[C@@H](CC(C)C)C(=O)N[C@@H](CC(N)=O)C(=O)N[C@@H](CO)C(=O)N[C@H](C(=O)N[C@@H](CC(C)C)C(=O)N[C@H](C(=O)NCC(=O)NCC(=O)N[C@@H](CSCNC(C)=O)C(N)=O)[C@@H](C)O)C(C)C)C(C)C) [Ac--(SEQ ID NO: 85)--NH2]	2.0 µg	0.45 nM
Ac--[N--Me--Ala^1, Lys^12, Nle^17, Ala^19, ^26, Thr^28 ]--VIP (Ac-[NMeA]SDAVFTDNYTKLRKQ[Nle]AAKKYLNSVLT-NH2; SMILES CCCC[C@H](NC(=O)[C@H](CCC(N)=O)NC(=O)[C@H](CCCCN)NC(=O)[C@H](CCCNC(=N)N)NC(=O)[C@H](CC(C)C)NC(=O)[C@H](CCCCN)NC(=O)[C@@H](NC(=O)[C@H](Cc1ccc(O)cc1)NC(=O)[C@H](CC(N)=O)NC(=O)[C@H](CC(=O)O)NC(=O)[C@@H](NC(=O)[C@H](Cc1ccccc1)NC(=O)[C@@H](NC(=O)[C@H](C)NC(=O)[C@H](CC(=O)O)NC(=O)[C@H](CO)NC(=O)[C@H](C)N(C)C(C)=O)C(C)C)[C@@H](C)O)[C@@H](C)O)C(=O)N[C@@H](C)C(=O)N[C@@H](C)C(=O)N[C@@H](CCCCN)C(=O)N[C@@H](CCCCN)C(=O)N[C@@H](Cc1ccc(O)cc1)C(=O)N[C@@H](CC(C)C)C(=O)N[C@@H](CC(N)=O)C(=O)N[C@@H](CO)C(=O)N[C@H](C(=O)N[C@@H](CC(C)C)C(=O)N[C@H](C(N)=O)[C@@H](C)O)C(C)C) [Ac--(SEQ ID NO: 91)--NH2, residue before ^26 lost in print, probably Val^26]	1.5 µg	2.8 nM

— patent publication US5234907A, “Synthetic vasoactive intestinal peptide analogs” (Hoffmann-La Roche Inc., priority 1991, dated 1993)
